{
  "source": "patent US20230270721A1",
  "about": "“INHIBITION OF BAX-MEDIATED CELL DEATH BY ELTROMBOPAG” (Albert Einstein College of Medicine, priority 2020, published 2023)",
  "key": {"[1]": {"test_system": "BAK KO (BAK-/-) MEFs", "assay": "Cytochrome c release assay (ELISA), BAK KO MEFs", "type": "cell-based, mouse", "parameters": "dose or concentration left out as unconfirmed", "settings": "BIM-BH3 peptide, EO pretreatment 2 hours", "procedure": "(§1) BAX^-/^- or BAK^-/^- mouse embryonic fibroblasts were maintained in DMEM (Life Technologies) supplemented with 10% FBS, 100 U/mL penicillin/streptomycin, 2 mM I-glutamine, and 0.1 mM MEM nonessential amino acids. MEFs (5×10^4 cells/well) were seeded in a 96 well clear u-bottom plate for 18-24 hr. Media was removed and replaced with media lacking FBS, and cells were treated with varying doses of EO for 2 hours at 37° C. […] Cytochrome c release was determined by decanting 50 µL of the supernatant and analyzing with the rat/mouse cytochrome c quantikine ELISA kit (R&D Systems, MCTO) according to the recommended protocol. […]\n(§2) It is important to note that THPO-receptor agonist activity of EO is highly specific to the human and chimpanzee THPO-receptors, making mouse cell lines ideal for studying EO modulation of BAX-dependent activity independent of THPO-mediated effects (Erickson-Miller, C. L. et al. Stem Cells 27, 424-430 (2009)). First, mitochondrial cytochrome c release, a hallmark of BAX activation and BAX-dependent apoptosis, was evaluated. […] Next, mitochondrial translocation of cytosolic BAX upon treatment with either BIM BH3 or staurosporine (STS) in BAK KO MEFs was evaluated."}, "[2]": {"test_system": "BAX KO (BAX-/-) MEFs", "assay": "Cytochrome c release assay (ELISA), BAX KO MEFs", "type": "cell-based, mouse", "settings": "BIM-BH3 peptide", "procedure": "as §1, §2"}},
  "data": [
    {"compound": "CC1=NN(c2ccc(C)c(C)c2)C(=O)/C1=N\\Nc1cccc(-c2cccc(C(=O)O)c2)c1O", "note": "[EO, eltrombopag]", "values": [
      {"measurement": "BIM-BH3 induced release of cytochrome c", "setting": "[1]", "result": "significantly inhibited"},
      {"measurement": "BIM-BH3 induced release of cytochrome c", "setting": "[2]", "result": "no such effect"}
    ]}
  ]
}
